In the assay the test system is Her2. Nature of the assay: IC50 range for inhibition of Her2 degradation (Table 8). The format is cell-based. The note with it: Homo sapiens. The procedure:
Human high-Her2 breast carcinoma BT474 (HTB-20), SK-BR-3 (HTB-30) and MCF-7 breast carcinoma (HTB-22) from American Type Culture Collection, VA, USA were grown in Dulbecco's modified Eagle's medium with 4 mM L-glutamine and antibiotics (100 IU/ml penicillin and 100 ug/ml streptomycine; GibcoBRL). To obtain exponential cell growth, cells were trypsinized, counted and seeded at a cell density of 0.5×10^6 cells/ml regularly, every 3 days. All experiments were performed on day 1 after cell passage. […]
After treatment with a compound of the invention, cells were washed twice with 1×PBS/1% FBS, and then stained with anti-Her2-FITC (#340553, BD) for 30 min at 4° C. Cells were then washed three times in FACS buffer before the fixation in 0.5 ml 1% paraformadehydrede. Data was acquired on a FACSCalibur system. Isotype-matched controls were used to establish the non-specific staining of samples and to set the fluorescent markers. A total 10,000 events were recorded from each sample. Data were analysed by using CellQuest software (BD Biosciences).

As a reminder, the IC50 is the concentration that inhibits the measured activity by half. High values mean lower potency, low ones higher potency.

The compound `O=C(O)c1cc(O)c(-c2nnc(S)n2-c2cccc3ccccc23)cc1O` [Compound 99, 3-(2,5-Dihydroxy-4-carboxy)-4-(naphthalen-1-yl)-5-mercapto-triazole] returned a concentration for half-maximal inhibition (IC50) of 10 to 100 µM. In turn, `CCc1cc(-c2nnc(S)n2-c2cccc3c2ccn3C(C)C)c(O)cc1O` [Compound 100, 3-(2,4-Dihydroxy-5-ethyl-phenyl)-4-(1-isopropyl-indol-4-yl)-5-mercapto-triazole] registered a 50% inhibitory concentration (IC50) of under 3 µM.

Turning to `CCc1cc(-c2nnc(S)n2-c2cccc3c2ncn3CC)c(O)cc1O` [Compound 102, 3-(2,4-Dihydroxy-5-ethyl-phenyl)-4-(1-ethyl-benzoimidazol-4-yl)-5-mercapto-triazole], the IC50 lay within 10 to 100 µM.

In turn, `CCc1cc(-c2nnc(S)n2-c2ccc3c(c2)c(C)c(C)n3C)c(O)cc1O` [Compound 103, 3-(2,4-Dihydroxy-5-ethyl-phenyl)-4-(1,2,3-trimethyl-indol-5-yl)-5-mercapto-triazole] gave an IC50 of under 3 µM.

`OCc1cc(O)c(-c2nnc(S)n2-c2cccc3ccccc23)cc1O` [Compound 104, 3-(2,5-Dihydroxy-4-hydroxymethyl-phenyl)-4-(naphthalen-1-yl)-5-mercapto-triazole] returned a 50% inhibitory concentration (IC50) of 10 to 100 µM. With `CC(=O)Oc1ccc(-c2nnc(SC(C)=O)n2-c2cccc3ccccc23)c(OC(C)=O)c1` [Compound 122, 3-(2,4-Diacetoxy-phenyl)-4-(naphthalen-1-yl)-5-(acetylsulfanyl)-triazole] the figure was 3 to 10 µM; with `CC(=O)Oc1ccc(-c2nnc(S)n2-c2cccc3ccccc23)c(OC(C)=O)c1` [Compound 123, 3-(2,4-Diacetoxy-phenyl)-4-(naphthalen-1-yl)-5-mercapto-triazole], 10 to 100 µM. With `COc1cc(-c2nnc(S)n2-c2cccc3ccccc23)c(O)cc1O` [Compound 177, 3-(2,4-Dihydroxy-5-methoxy-phenyl)-4-(naphthalen-1-yl)-5-mercapto-triazole] the figure was under 3 µM; with `CCc1cc(-c2nnc(S)n2-c2cccc3c(O)cccc23)c(O)cc1O` [Compound 178, 3-(2,4-Dihydroxy-5-ethyl-phenyl)-4-(5-hydroxy-naphthalen-1-yl)-5-mercapto-triazole], under 3 µM.

With `Oc1ccc(-c2nnc(S)n2-c2cccc(-c3ccccc3)c2)c(O)c1` [Compound 181, 3-(2,4-Dihydroxy-phenyl)-4-(biphenyl-3-yl)-5-mercapto-triazole], the IC50 was 10 to 100 µM. The result for `Cc1ccc(CO)cc1-n1c(S)nnc1-c1ccc(O)cc1O` [Compound 182, 3-(2,4-Dihydroxy-phenyl)-4-(2-methyl-5-hydroxymethyl-phenyl)-5-mercapto-triazole] reads 10 to 100 µM; that for `Oc1cc(O)c(-c2nnc(S)n2-c2cccc3ccccc23)cc1O` [Compound 184, 3-(2,4,5-Trihydroxy-phenyl)-4-(naphthalene-1-yl)-5-mercapto-triazole], 3 to 10 µM. The result for `CCc1cc(-c2nnc(S)n2-c2ccc3[nH]c(C)c(C)c3c2)c(O)cc1O` [Compound 185, 3-(2,4-Dihydroxy-5-ethyl-phenyl)-4-(2,3-dimethyl-indol-5-yl)-5-mercapto-triazole] reads under 3 µM; that for `CCc1cc(-c2nnc(S)n2-c2ccc(OC)c(C(C)(C)C)c2)c(O)cc1O` [Compound 186, 3-(2,4-Dihydroxy-5-ethyl-phenyl)-4-(3-t-butyl-4-methoxy-phenyl)-5-mercapto-triazole], 10 to 100 µM. In turn, `CCc1cc(-c2nnc(S)n2-c2ccc(OC)c3c2ccn3C(C)C)c(O)cc1O` [Compound 188, 3-(2,4-Dihydroxy-5-ethyl-phenyl)-4-(1-isopropyl-7-methoxy-indol-4-yl)-5-mercapto-[1,2,4]triazole] had an IC50 of under 3 µM.

`Oc1cc(O)c(C2CC2)cc1-c1nnc(S)n1-c1cccc2ccccc12` [Compound 189, 3-(2,4-Dihydroxy-5-cyclopropyl-phenyl)-4-(naphthalene-1-yl)-5-mercapto-triazole] registered an IC50 of under 3 µM.

The values above are taken from US20080004276A1, “Method for treating non-hodgkin's lymphoma” (priority 2006, published 2008).
